One series concerns human PMN. In words: Chemotaxis of human peripheral leukocytes (human PMN chemotaxis, FMLP as chemoattractant). The series is classed as cell-based. Conditions: Leukocyte, FMLP 1×10^-8 M; for inhibition at 1 µM: read-out: PERCENT INHIBITION (human PMN chemotaxis) 1 μM; for inhibition at 0.01 µM: read-out: PERCENT INHIBITION (human PMN chemotaxis) 0.01 μm. How it is done:
A) Equal parts of citrated peripheral venous blood drawn from a normal volunteer were mixed with saline containing 6% dextran. The mixture was allowed to sediment for 30-40 minutes in a 50 ml polypropylene centrifuge tube. B) The plasma was decanted and centrifuged at 1500 rpm for 7 minutes and washed with saline. C) The supernatant was decanted and the contaminating red blood cells were eliminated by adding ice cold lysing solution and allowing the cell suspension to stand on ice for 5 minutes. […] E) The tubes were centrifuged at 400g for 30 minutes at room temperature. F) The supernatant was decanted and the PMNs (pelleted on the bottom of the tubes) were washed with saline and with Hanks buffer. The cells were adjusted to a final concentration of 3×10^6 cells/ml in Hanks buffer containing 0.5% BSA. 1) Chemoattractant: serial dilution was prepared of the stocks (10^-3 M) N-Formyl-methionyl-leucylphenylalanine in Hanks buffer and 130 μl of 1×10^-8 M solution was pipetted into the lower bottom chamber. The bottom chamber of the negative control was filled with saline. 2) Placed Millipore membranes to completely cover the wells and allowed the liquid to absorb. 3) Placed on upper chamber and tighten retaining nuts. 1) Sample preparation: Mixed equal volume of sample diluted in Hanks buffer containing […] and cell suspension in a test tube prior to pipetting 200 μl into appropriate duplicate chambers. 2) Incubated chambers at 37° C. for 40-60 minutes. 10) Three to five fields per membrane were counted with the aid of the Image Analyser (optimal 40-10). Special effort was made to select a standard for evaluating the cell monolayer in which the distribution of cells in the field of view is uniform. The number of cells at each […] level beneath the selected monolayer was then counted and the chemotactic index (CI) calculated by multiplying the individual cell count at each level by their corresponding depth of penetration, and taking the sum of these numbers. 11) The results in Table II are recorded as percent inhibition. Percent inhibition by each thienylbenzylamime was calculated as follows: [formula] The CI of the control was determined by conducting the assay with N-formyl-methionyl-leucylphenylalanine (FMLP) alone without any thienlbenzylamine. The background was determined by conducting the assay without any FMLP.

The nature of series [1]: Hygroscopicity and stability in air of the hydrochloride salt. The series is classed as physicochemical. How it is done: D. Hydrochloride salt of 5-chloro-2[(2-dimethylaminomethylphenyl) hydroxymethyl]thiophene 1.0 g of the 5-chloro-2-[(2-dimethylaminomethylphenyl)hydroxymethyl]thiophene prepared in C was dissolved in ether. The etheral solution was cooled to -80° C. Upon addition of an ethereal HCl solution a white precipitate was obtained which was immediately filtered under N2 and dried in high vacuum without heating.

For another series, the system named is paw swelling. In words: Reverse passive Arthus reaction, inhibition of paw swelling after oral dosing. It counts as in vivo. Conditions: Rattus norvegicus, po, 30 mg/kg oral, rats. How it is done: The reverse passive Arthus reaction is initiated by the interaction of antigen and antibody resulting in the formation of a precipitating immune complex, followed by fixation of complement, accumulation of leukocytes, edema and hemorrhage. The immunopathology of rheumatoid arthritis involves many of the parameters found in this reaction. Test groups (5 rats per group) are dosed orally with compounds one hour prior to the sub-plantar injection into the right hind paw of rabbit anti-ovalbumin antibody (50 μg/0.1 ml). Immediately afterwards, ovalbumin (Sigma, #5503) (5 mg/0.2 ml) is injected i.v. via the tail vein. The right hind paw volume is measured at hourly intervals, from one to four hours after the injection of the immune reactants. The change in paw volume for each animal is calculated by subtracting zero hour paw volume (before injection) from the paw volume at the time of measurement. The mean of these values is calculated for each group. Results are expressed in Table I below as percent inhibition of paw swelling compared to untreated controls.

[2] abbreviates: 2 h, 2 hours, read-out: % INHIBITION (of paw swelling) HOUR 2.
Setting [3] is: 3 h, 3 hours, read-out: % INHIBITION (of paw swelling) HOUR 3.
Setting [4] is: 4 h, 4 hours, read-out: % INHIBITION (of paw swelling) HOUR 4.

Structures can show the parent of a compound that is named as a salt. Where two headings read alike, the source gives them in different places.

Broadly, the inhibition is the share of the control response that was lost under treatment. For the compound `CN(C)Cc1ccccc1C(O)c1ccc(Cl)s1.Cl` (stereo not shown) [Compound 2, 5-chloro-2-[(2-dimethylaminomethylphenyl)hydroxymethyl]thiophene hydrochloride], in the series with human PMN, the inhibition at 1 µM turned out to be 76% and the inhibition at 0.01 µM is 57%. For the same compound, the hygroscopicity entry in series [1] was “extremely hygroscopic”. Also, the stability in air entry in series [1] (in air) is listed as “unstable in air”.

In the case of `CN(C)Cc1ccccc1C(O)c1cccs1` (stereo not shown) [Compound 3, 2-[(2-Dimethylaminomethylphenyl)hydroxymethyl]thiophene], in the series on human PMN, the inhibition at 1 µM worked out at 39%. For the same compound, in the series on human PMN, the inhibition at 0.01 µM came to 14%. Besides, the inhibition in vivo at 30 mg/kg in the series on paw swelling (setting [2]) came out at 43.3%; in the series with paw swelling (setting [3]), 22.8%; in the series on paw swelling (setting [4]), 0%.

Turning to `Cc1ccc(C(O)c2ccccc2CN(C)C)s1` (stereo not shown) [Compound 4, 2-[(2-dimethylaminomethylphenyl)hydroxymethyl]-5-methyl-thiophene], the inhibition at 1 µM with human PMN is 55%. The inhibition at 0.01 µM in the series on human PMN was 12%. Moreover, the values for the inhibition in vivo at 30 mg/kg with paw swelling (setting [2]), in the series with paw swelling (setting [3]) and with paw swelling (setting [4]) were 43.1%, 19.8% and 4.2%, respectively.

Consider `CN(C)Cc1ccccc1C(O)c1sccc1Cl` (stereo not shown) [Compound 5, 3-chloro-2-[(2-dimethylaminomethylphenyl)hydroxymethyl]thiophene], for which the inhibition at 1 µM in the series with human PMN was found to be 34%. In addition, the inhibition at 0.01 µM with human PMN came out at 34%. Moreover, the inhibition in vivo at 30 mg/kg with paw swelling (setting [2]) turned out to be 35.6%; with paw swelling (setting [3]), 13.6%; in the series on paw swelling (setting [4]) it was 32.3%.

As for `CCN(CC)Cc1ccccc1C(O)c1ccc(Cl)s1` (stereo not shown) [Compound 6, 5-chloro-2-[(2-diethylaminomethylphenyl)hydroxymethyl]thiophene], in the series on human PMN, the inhibition at 1 µM was found to be 25%. For the same compound, the inhibition at 0.01 µM in the series on human PMN was 24%. Also, the figures for the inhibition in vivo at 30 mg/kg in the series with paw swelling (setting [2]), in the series with paw swelling (setting [3]) and in the series on paw swelling (setting [4]) were 46%, 35.9% and 0%, respectively.

Turning to `CCOC(c1ccc(Cl)s1)c1ccccc1CN(C)C` (stereo not shown) [Compound 7, 5-chloro-2-[(2-dimethylaminomethylphenyl)ethoxymethyl]thiophene], in the series with human PMN, the inhibition at 1 µM came to 41%. Also, the inhibition at 0.01 µM in the series with human PMN is 37%. The inhibition in vivo at 30 mg/kg was 24.2% with paw swelling (setting [2]), 0% in the series with paw swelling (setting [3]) and 0% in the series with paw swelling (setting [4]).

Consider `CN(CCO)Cc1ccccc1C(O)c1ccc(Cl)s1` (stereo not shown) [Compound 8], for which the inhibition at 1 µM in the series on human PMN was 42%. Also, the inhibition at 0.01 µM with human PMN came to 35%. For the same compound, the inhibition in vivo at 30 mg/kg came out at 26.9% in the series on paw swelling (setting [2]), 18.2% in the series on paw swelling (setting [3]) and 2.8% in the series on paw swelling (setting [4]).

`COC(c1ccc(Cl)s1)c1ccccc1CN(CCO)CCO` (stereo not shown) [Compound 9, 5-chloro-2-[2-(N,N-diethanolaminomethyl-phenyl)methoxymethyl]thiophene]: the inhibition at 1 µM in the series on human PMN was 49%. In addition, the inhibition at 0.01 µM in the series with human PMN was 23%. In addition, the inhibition in vivo at 30 mg/kg came to 20.8% in the series with paw swelling (setting [2]), 3.6% with paw swelling (setting [3]) and 0% with paw swelling (setting [4]).

As for `CN(C)Cc1ccccc1C(=O)c1ccc(Cl)s1` [Compound 11, 5-chloro-2-(2-dimethylaminomethylbenzoyl)thiophene], the inhibition at 1 µM in the series on human PMN amounted to 33%. Further, the inhibition at 0.01 µM in the series with human PMN is 37%. Besides, the inhibition in vivo at 30 mg/kg with paw swelling (setting [2]) is 40.5%; in the series with paw swelling (setting [3]) it was 18.8%; in the series with paw swelling (setting [4]), 1.5%.

As for `CN(C)Cc1ccccc1Cc1ccc(Cl)s1` [Compound 12, 5-chloro-2-(2-dimethylaminomethylphenylmethyl)thiophene], the inhibition at 1 µM with human PMN is 52%. For the same compound, the inhibition at 0.01 µM in the series on human PMN stood at 54%. Moreover, the inhibition in vivo at 30 mg/kg was 65.8% in the series on paw swelling (setting [2]), 51.1% in the series with paw swelling (setting [3]) and 25.5% with paw swelling (setting [4]).

Take `CN1Cc2ccccc2C1c1ccc(Cl)s1` (stereo not shown) [Compound 14]: the inhibition at 1 µM in the series with human PMN was found to be 51%. Further, the inhibition at 0.01 µM in the series with human PMN was found to be 0%. Besides, the values for the inhibition in vivo at 30 mg/kg with paw swelling (setting [2]), with paw swelling (setting [3]) and in the series with paw swelling (setting [4]) were 64.4%, 49.9% and 17.8%, respectively.

As to `CN(C)Cc1ccccc1C(O)c1ccsc1` (stereo not shown) [Compound 21], in the series on human PMN, the inhibition at 1 µM came to 54%. In the series on human PMN, the inhibition at 0.01 µM turned out to be 35%. Further, the results for the inhibition in vivo at 30 mg/kg in the series with paw swelling (setting [2]), in the series with paw swelling (setting [3]) and with paw swelling (setting [4]) were 39%, 18% and 30%, respectively.

With `CN(C)Cc1ccccc1C(O)c1ccsc1Cl` (stereo not shown) [Compound 22, 2-chloro-3-[(2-N,N-dimethylaminomethylphenyl)hydroxymethyl]thiophene hydrochloride], the inhibition at 1 µM with human PMN came out at 29%. Besides, the figures for the inhibition in vivo at 30 mg/kg with paw swelling (setting [2]), in the series on paw swelling (setting [3]) and in the series with paw swelling (setting [4]) were 22%, 0% and 0%, respectively.

As for `CN(C)Cc1ccccc1C(O)c1csc(Br)c1` (stereo not shown) [Compound 23, 5-bromo-3-[(2-N,N-dimethylaminomethylphenyl)hydroxymethyl] thiophene hydrochloride], the inhibition at 1 µM in the series with human PMN is 34%. The inhibition in vivo at 30 mg/kg in the series with paw swelling (setting [2]) came to 72%; in the series on paw swelling (setting [3]) it was 66%; in the series on paw swelling (setting [4]), 44%.

On to `CN(C)Cc1ccccc1C(O)c1csc(Cl)c1` (stereo not shown) [Compound 24, 5-chloro-3-[(2-N,N-dimethylaminomethylphenyl)hydroxymethyl]thiophene hydrochloride], for which the inhibition at 1 µM in the series with human PMN was determined as 19%. In addition, the values for the inhibition in vivo at 30 mg/kg in the series on paw swelling (setting [2]), in the series on paw swelling (setting [3]) and in the series on paw swelling (setting [4]) were 51%, 54% and 53%, respectively.

Regarding `CN(C)Cc1ccccc1C(C)(O)c1ccc(Cl)s1` (stereo not shown) [Compound 33, N,N-dimethyl-2-[1-(5-chlorothien-2-yl)-1-hydroxyethyl]benzylamine hydrochloride], in the series with human PMN, the inhibition at 1 µM came to 26%. For the same compound, the inhibition at 0.01 µM in the series with human PMN worked out at 26%. Also, the inhibition in vivo at 30 mg/kg in the series with paw swelling (setting [2]) worked out at 66%; in the series with paw swelling (setting [3]) it was 60%; with paw swelling (setting [4]), 40%.

(Values after patent publication US5030647A, “Anti-inflammatory thienylbenzylamine compounds” (Boehringer Ingelheim Pharmaceuticals, Inc., priority 1990, dated 1991).)
